From the NIST ThermoML archive (doi:10.1016/j.jct.2017.03.006)
Numbers after ± are expanded uncertainties.

Experiment: xn = mol fraction of the nth substance listed
Conditions: 333.15 K, Liquid, Vibrating tube method

Cc1ccc(C)c(C)c1 [1,2,4-trimethylbenzene] + CCC(C)O
mass density (40000 kPa, x2 = 0.7999): 819.7 ± 0.8 kg/m3
mass density (40000 kPa, x2 = 0.9): 812.1 ± 0.8 kg/m3
mass density (50000 kPa, x2 = 0): 877.4 ± 0.8 kg/m3
mass density (50000 kPa, x2 = 0.1): 871.2 ± 0.8 kg/m3
mass density (50000 kPa, x2 = 0.1989): 865.3 ± 0.8 kg/m3
mass density (50000 kPa, x2 = 0.3011): 859.2 ± 0.8 kg/m3
mass density (50000 kPa, x2 = 0.4002): 853.2 ± 0.8 kg/m3
mass density (50000 kPa, x2 = 0.5001): 847.6 ± 0.8 kg/m3
mass density (50000 kPa, x2 = 0.5997): 840.5 ± 0.8 kg/m3
mass density (50000 kPa, x2 = 0.6999): 833.4 ± 0.8 kg/m3
mass density (50000 kPa, x2 = 0.7999): 826.3 ± 0.8 kg/m3
mass density (50000 kPa, x2 = 0.9): 818.7 ± 0.8 kg/m3
mass density (60000 kPa, x2 = 0): 883 ± 0.8 kg/m3
mass density (60000 kPa, x2 = 0.1): 876.9 ± 0.8 kg/m3
mass density (60000 kPa, x2 = 0.1989): 871.1 ± 0.8 kg/m3
mass density (60000 kPa, x2 = 0.3011): 865.1 ± 0.8 kg/m3
mass density (60000 kPa, x2 = 0.4002): 859.1 ± 0.8 kg/m3
mass density (60000 kPa, x2 = 0.5001): 853.7 ± 0.8 kg/m3
mass density (60000 kPa, x2 = 0.5997): 846.6 ± 0.8 kg/m3
mass density (60000 kPa, x2 = 0.6999): 839.5 ± 0.8 kg/m3
mass density (60000 kPa, x2 = 0.7999): 832.5 ± 0.8 kg/m3
mass density (60000 kPa, x2 = 0.9): 824.9 ± 0.8 kg/m3
mass density (70000 kPa, x2 = 0): 888.2 ± 0.8 kg/m3
mass density (70000 kPa, x2 = 0.1): 882.5 ± 0.8 kg/m3
mass density (70000 kPa, x2 = 0.1989): 876.6 ± 0.8 kg/m3
mass density (70000 kPa, x2 = 0.3011): 870.6 ± 0.8 kg/m3
mass density (70000 kPa, x2 = 0.4002): 864.8 ± 0.8 kg/m3
mass density (70000 kPa, x2 = 0.5001): 859.3 ± 0.8 kg/m3
mass density (70000 kPa, x2 = 0.5997): 852.3 ± 0.8 kg/m3
mass density (70000 kPa, x2 = 0.6999): 845.3 ± 0.8 kg/m3
mass density (70000 kPa, x2 = 0.7999): 838.4 ± 0.9 kg/m3
mass density (70000 kPa, x2 = 0.9): 830.7 ± 0.9 kg/m3
mass density (80000 kPa, x2 = 0): 893.2 ± 0.8 kg/m3
mass density (80000 kPa, x2 = 0.1): 887.6 ± 0.8 kg/m3
mass density (80000 kPa, x2 = 0.1989): 881.9 ± 0.8 kg/m3
mass density (80000 kPa, x2 = 0.3011): 875.9 ± 0.8 kg/m3
mass density (80000 kPa, x2 = 0.4002): 870.1 ± 0.8 kg/m3
mass density (80000 kPa, x2 = 0.5001): 864.7 ± 0.8 kg/m3
mass density (80000 kPa, x2 = 0.5997): 857.8 ± 0.9 kg/m3
mass density (80000 kPa, x2 = 0.6999): 850.8 ± 0.9 kg/m3
mass density (80000 kPa, x2 = 0.7999): 843.7 ± 0.9 kg/m3
mass density (80000 kPa, x2 = 0.9): 836.2 ± 0.9 kg/m3
mass density (90000 kPa, x2 = 0): 898 ± 0.8 kg/m3
mass density (90000 kPa, x2 = 0.1): 892.5 ± 0.8 kg/m3
mass density (90000 kPa, x2 = 0.1989): 886.9 ± 0.8 kg/m3
mass density (90000 kPa, x2 = 0.3011): 881 ± 0.8 kg/m3
mass density (90000 kPa, x2 = 0.4002): 875.2 ± 0.9 kg/m3
mass density (90000 kPa, x2 = 0.5001): 869.8 ± 0.9 kg/m3
mass density (90000 kPa, x2 = 0.5997): 862.9 ± 0.9 kg/m3
mass density (90000 kPa, x2 = 0.6999): 856 ± 0.9 kg/m3
mass density (90000 kPa, x2 = 0.7999): 849 ± 0.9 kg/m3
mass density (90000 kPa, x2 = 0.9): 841.4 ± 0.9 kg/m3
mass density (100000 kPa, x2 = 0): 902.5 ± 0.8 kg/m3
mass density (100000 kPa, x2 = 0.1): 897.2 ± 0.8 kg/m3
mass density (100000 kPa, x2 = 0.1989): 891.7 ± 0.8 kg/m3
mass density (100000 kPa, x2 = 0.3011): 885.8 ± 0.9 kg/m3
mass density (100000 kPa, x2 = 0.4002): 880 ± 0.9 kg/m3
mass density (100000 kPa, x2 = 0.5001): 874.7 ± 0.9 kg/m3
mass density (100000 kPa, x2 = 0.5997): 867.9 ± 0.9 kg/m3
mass density (100000 kPa, x2 = 0.6999): 860.9 ± 0.9 kg/m3
mass density (100000 kPa, x2 = 0.7999): 853.9 ± 0.9 kg/m3
mass density (100000 kPa, x2 = 0.9): 846.4 ± 0.9 kg/m3
mass density (110000 kPa, x2 = 0): 906.9 ± 0.8 kg/m3
mass density (110000 kPa, x2 = 0.1): 901.8 ± 0.8 kg/m3
mass density (110000 kPa, x2 = 0.1989): 896.2 ± 0.9 kg/m3
mass density (110000 kPa, x2 = 0.3011): 890.5 ± 0.9 kg/m3
mass density (110000 kPa, x2 = 0.4002): 884.7 ± 0.9 kg/m3
mass density (110000 kPa, x2 = 0.5001): 879.4 ± 0.9 kg/m3
mass density (110000 kPa, x2 = 0.5997): 872.6 ± 0.9 kg/m3
mass density (110000 kPa, x2 = 0.6999): 865.7 ± 0.9 kg/m3
mass density (110000 kPa, x2 = 0.7999): 858.7 ± 1 kg/m3
mass density (110000 kPa, x2 = 0.9): 851.2 ± 1 kg/m3
mass density (120000 kPa, x2 = 0): 911.1 ± 0.8 kg/m3
mass density (120000 kPa, x2 = 0.1): 906.1 ± 0.8 kg/m3
mass density (120000 kPa, x2 = 0.1989): 900.7 ± 0.9 kg/m3
mass density (120000 kPa, x2 = 0.3011): 894.8 ± 0.9 kg/m3
mass density (120000 kPa, x2 = 0.4002): 889.1 ± 0.9 kg/m3
mass density (120000 kPa, x2 = 0.5001): 883.9 ± 0.9 kg/m3
mass density (120000 kPa, x2 = 0.5997): 877.1 ± 0.9 kg/m3
mass density (120000 kPa, x2 = 0.6999): 870.2 ± 0.9 kg/m3
mass density (120000 kPa, x2 = 0.7999): 863.2 ± 1 kg/m3
mass density (120000 kPa, x2 = 0.9): 855.7 ± 1 kg/m3
mass density (130000 kPa, x2 = 0): 915.1 ± 0.8 kg/m3
mass density (130000 kPa, x2 = 0.1): 910.3 ± 0.9 kg/m3
mass density (130000 kPa, x2 = 0.1989): 904.9 ± 0.9 kg/m3
mass density (130000 kPa, x2 = 0.3011): 899.1 ± 0.9 kg/m3
mass density (130000 kPa, x2 = 0.4002): 893.4 ± 0.9 kg/m3
mass density (130000 kPa, x2 = 0.5001): 888.2 ± 0.9 kg/m3
mass density (130000 kPa, x2 = 0.5997): 881.5 ± 0.9 kg/m3
mass density (130000 kPa, x2 = 0.6999): 874.5 ± 1 kg/m3
mass density (130000 kPa, x2 = 0.7999): 867.5 ± 1 kg/m3
mass density (130000 kPa, x2 = 0.9): 860.1 ± 1 kg/m3
mass density (140000 kPa, x2 = 0): 919 ± 0.8 kg/m3
mass density (140000 kPa, x2 = 0.1): 914.3 ± 0.9 kg/m3
mass density (140000 kPa, x2 = 0.1989): 909.1 ± 0.9 kg/m3
mass density (140000 kPa, x2 = 0.3011): 903 ± 0.9 kg/m3
mass density (140000 kPa, x2 = 0.4002): 897.5 ± 0.9 kg/m3
mass density (140000 kPa, x2 = 0.5001): 892.2 ± 0.9 kg/m3
mass density (140000 kPa, x2 = 0.5997): 885.9 ± 1 kg/m3
mass density (140000 kPa, x2 = 0.6999): 878.5 ± 1 kg/m3
mass density (140000 kPa, x2 = 0.7999): 871.5 ± 1 kg/m3
mass density (140000 kPa, x2 = 0.9): 864 ± 1 kg/m3
